The record followed here is PubChem BioAssay (NCI).

Values joined by “and” are separate entries in the source; they are usually repeats but may differ in a detail not shown here. Identical values can stand only once.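 96-well plates; 48 h exposure; 5 concentrations. Endpoints by linear interpolation between flanking doses. Not reached: highest tested concentration assigned. Here, GI50 denotes the concentration required for 50% inhibition of growth. TGI is the concentration that stops growth completely.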 Where only a bound is given, the exact number is not on record here.

What all share (experiment): NCI-60 cell line screen, 48 h
For assay [1], the system named is ACHN renal.
Assay [2] relates to EKVX NSCLC.
For assay [3], the system named is HOP-62 NSCLC.
For assay [4], the system named is IGROV1 ovarian.
The subject of assay [5] is KM12 colon.
Assay [6] deals with M14 melanoma.
Assay [7] relates to MALME-3M melanoma.
Assay [8] concerns TK-10 renal.

For `FC(F)c1nc2ccccc2n1-c1nc(N2CCOCC2)nc(N2CCOCC2)n1`, the GI50 is 0.299 µM and 0.397 µM in assay [1]; 0.445 µM in assay [2]; 0.495 µM and 1.1 µM in assay [3]; 0.0621 µM and 0.165 µM in assay [4]; 0.739 µM and 0.969 µM in assay [5]; 0.566 µM and 0.464 µM in assay [6]. Also, the GI50 in assay [7] was 0.178 µM and 0.16 µM; in assay [8], 0.129 µM and 0.205 µM. Moreover, the TGI in assay [1] was more than 100 µM; in assay [2] it was 4.88 µM; in assay [3], 5.36 µM and 15.7 µM; in assay [4], 0.369 µM and 0.593 µM; in assay [5], more than 100 µM; in assay [7], 1.65 µM and 0.919 µM. Also, in assay [8], the TGI was 0.907 µM and 1.58 µM.
Consider `O=C1c2ccccc2-c2c1c1c(=O)[nH]c3ccccc3c1n2Cc1ccccc1`, for which the GI50 in assay [1] was 13 µM; in assay [2] it was 30.4 µM; in assay [3], 25.6 µM; in assay [4], 29.9 µM; in assay [5] it was more than 100 µM; in assay [6] it was more than 100 µM. The GI50 in assay [7] is 37.1 µM; in assay [8] it was 15.1 µM. The TGI in assay [1] is 25.6 µM; in assay [2] it was 99.5 µM; in assay [3], 49.1 µM; in assay [4], 97.3 µM; in assay [5] it was more than 100 µM; in assay [6], more than 100 µM. For the same molecule, the TGI in assay [7] is more than 100 µM; in assay [8], 29.2 µM.
Turning to `CC(=O)O[C@H]1CC[C@@]2(C)C(=CC[C@H]3[C@@H]4CC[C@H](c5cc(C(F)(F)F)n(C(C)=O)n5)[C@@]4(C)CC[C@@H]32)C1`, the TGI in assay [1] is 20.2 µM; in assay [2], 21.3 µM; in assay [3], 21.2 µM; in assay [4], 16.4 µM; in assay [5], 20.9 µM; in assay [6], 22.1 µM. Moreover, the TGI was more than 52.8 µM in assay [7] and 14.9 µM in assay [8].
In the case of `CCOC(=O)c1sc(-c2ccc(OS(=O)(=O)c3ccc(Br)s3)c(C=O)c2)nc1C`, the GI50 was 3.02 µM in assay [1]; 14.3 µM in assay [2]; 3.3 µM in assay [3]; 3.31 µM in assay [4]; 3.36 µM in assay [5]; 3.22 µM in assay [6]. Also, the GI50 in assay [7] was 4.08 µM; in assay [8], 2.83 µM. The TGI in assay [1] was found to be 9.05 µM; in assay [2], 54.1 µM; in assay [3] it was 12.5 µM; in assay [4], 12.7 µM; in assay [5], 11.6 µM; in assay [6] it was 11.3 µM. Besides, the TGI was 18.1 µM in assay [7] and 8.96 µM in assay [8].
For the molecule `O=C(CC(c1ccccc1)c1c(O)c2ccccc2oc1=O)c1ccccc1` (stereo not given), the TGI in assay [1], in assay [2], in assay [3], in assay [4], in assay [5] and in assay [6] was more than 100 µM in each case. The TGI in assay [7] and in assay [8] was more than 100 µM each time.
Consider `COC(=O)c1c2c(c[n+]([O-])c1C)C(=O)C=CC2=O`, for which the GI50 in assay [1] was 1.73 µM; in assay [2] it was 1.83 µM; in assay [3], 2.6 µM; in assay [4] it was 2.11 µM; in assay [5] it was 4.27 µM; in assay [6] it was 1.87 µM. The figures for the GI50 in assay [7] and in assay [8] were 1.25 µM and 2.99 µM, respectively. In addition, the TGI in assay [1] came to 3.22 µM; in assay [2] it was 4.25 µM; in assay [3], 7.71 µM; in assay [4], 4.54 µM; in assay [5], 18.8 µM; in assay [6], 3.69 µM. The TGI in assay [7] was 2.51 µM; in assay [8], 9.57 µM.
As for `COc1ccc(-c2cc(=O)c3ccc(C)nc3[nH]2)cc1`, the TGI in assay [1], in assay [2], in assay [3], in assay [4], in assay [5] and in assay [6] was more than 100 µM in each case. In addition, the TGI in assay [7] and in assay [8] was more than 100 µM throughout.
Consider `[Cl][Hg][Cl]`, for which the GI50 in assay [1] was 18 µM; in assay [2], 19.9 µM; in assay [3] it was 16.7 µM; in assay [4], 8.2 µM; in assay [5] it was 16.8 µM; in assay [6], 16.2 µM. Also, the GI50 in assay [7] was 9.16 µM; in assay [8] it was 17.5 µM. In addition, the TGI was found to be 32 µM in assay [1]; 34.6 µM in assay [2]; 31.3 µM in assay [3]; 24.8 µM in assay [4]; 31.6 µM in assay [5]; 32.2 µM in assay [6]. The results for the TGI in assay [7] and in assay [8] were 22.1 µM and 31.5 µM, respectively.
For the molecule `CC(C)(C)C(=O)c1c(C(F)(F)F)n([O-])c2ccccc2[n+]1=O`, the GI50 in assay [1] was 0.272 µM; in assay [2], 0.757 µM; in assay [3] it was 1.47 µM; in assay [4], 0.0505 µM; in assay [5], 0.905 µM; in assay [6] it was 1.45 µM. Also, the GI50 in assay [7] was 0.973 µM; in assay [8] it was 0.896 µM. Moreover, the TGI is 0.743 µM in assay [1]; 2.3 µM in assay [2]; 2.94 µM in assay [3]; 0.172 µM in assay [4]; 2.4 µM in assay [5]; 4.85 µM in assay [6]. For the same molecule, the TGI in assay [7] was found to be 2.34 µM; in assay [8] it was 2.18 µM.
For `COc1ccc(S(=O)(=O)N2CC(C)(C)CN(S(=O)(=O)c3ccc(OC)cc3)C2C(=O)NO)cc1`, the GI50 was more than 20 µM in assay [1]; 12.3 µM in assay [2]; more than 20 µM in assay [3]; more than 20 µM in assay [4]; more than 20 µM in assay [5]; more than 20 µM in assay [6]. In addition, the GI50 is 5.93 µM in assay [7] and 19.5 µM in assay [8]. Further, the TGI in assay [1], in assay [2], in assay [3], in assay [4], in assay [5] and in assay [6] was more than 20 µM throughout. Also, the TGI in assay [7] and in assay [8] was more than 20 µM throughout.
